In the OPERA property sets (Mansouri et al. 2018):

Conditions: for log10 BCF / log10 biotransformation half-life (days): fish

Structure (SMILES) | boiling point [°C] | melting point [°C] | also measured
CC(C)=CC(=O)C=C(C)C | 198 | 28 | log10 vapour pressure (mmHg): -0.557
CCCCC(Cl)CCl (stereo not given) | 173 | – | –
Clc1ccc2c(c1)Oc1c(Cl)c(Cl)c(Cl)c(Cl)c1O2 | – | 195 | log10 Koa: 10.7; log10 vapour pressure (mmHg): -9.18
Cc1cc(O)ccc1Br | – | 63.5 | –
Cc1ccc([N+](=O)[O-])cc1Cl | 260 | 66.5 | ready biodegradability: not readily biodegradable
Cc1[nH]c(=O)n(C(C)C)c(=O)c1Br | – | 158 | log10 Koc (L/kg): 2.11
CCCCCCCCCCCCI | 298 | 0.3 | log10 vapour pressure (mmHg): -1.85
Clc1ccc(Cl)c(-c2ccccc2Cl)c1 | – | – | log10 Henry constant (atm·m³/mol): -3.6; log10 Koa: 7.6; log10 Koc (L/kg): 4.4; log10 vapour pressure (mmHg): -2.98; log10 BCF: 4.23; log10 biotransformation half-life (days): 1.87
O=Cc1cc([N+](=O)[O-])ccc1O | – | 129 | –
Cc1ccc([N+](=O)[O-])cc1 | 238 | 51.6 | log10 Henry constant (atm·m³/mol): -5.25; log10 vapour pressure (mmHg): -1.8; ready biodegradability: not readily biodegradable; log10 BCF: 0.9; log10 biotransformation half-life (days): -1.01
c1ccc2c(c1)ccc1c3ccccc3sc21 | – | 189 | log10 vapour pressure (mmHg): -6.94
CC(C)Oc1cc(-n2nc(C(C)(C)C)oc2=O)c(Cl)cc1Cl | – | 90 | log10 Koc (L/kg): 3.51; log10 vapour pressure (mmHg): -6.95; ready biodegradability: not readily biodegradable; log10 BCF: 3.08; log10 biotransformation half-life (days): 0.77
N#CC(=NO)c1ccccc1 | – | 129 | –
C#C[C@]1(O)CC[C@H]2[C@@H]3CCC4=CC(=O)CC[C@@H]4[C@H]3CC[C@@]21CC | – | 223 | –
Clc1cc(-c2c(Cl)ccc(Cl)c2Cl)c(Cl)c(Cl)c1Cl | – | – | log10 Henry constant (atm·m³/mol): -4.85; log10 biotransformation half-life (days): 2.47
COc1cc(Cl)c(Cl)c(Cl)c1 | – | – | log10 BCF: 3.09
O=C(Oc1ccccc1)n1c(C(F)(F)F)nc2cc(Cl)c(Cl)cc21 | – | 103 | –
C[C@@H]1CC[C@H]2[C@@H]1[C@H]1[C@@H](CC[C@@]2(C)O)C1(C)C | 292 | 105 | –
O=[N+]([O-])c1cccc(Cl)c1 | 236 | 46 | log10 Henry constant (atm·m³/mol): -4.87; log10 vapour pressure (mmHg): -1.01; ready biodegradability: not readily biodegradable; log10 BCF: 1.89
O=C(O)CCCC(=O)c1ccccc1 | – | 127 | –
O=C(O)CC=Cc1ccccc1 | 302 | 87 | –

Structure (SMILES) | boiling point [°C] | melting point [°C] | also measured
O=c1cc(-c2ccccc2)oc2cc(O)cc(O)c12 | – | 286 | –
CCCC(C)C(C)=O (stereo not given) | 144 | – | –
CC(=O)C(N=Nc1ccc(-c2ccc(N=NC(C(C)=O)C(=O)Nc3ccccc3C)c(Cl)c2)cc1Cl)C(=O)Nc1ccccc1C (stereo not given) | – | – | ready biodegradability: not readily biodegradable
CCC(C)C(C(=O)OCC[N+](C)(CC)CC)c1ccccc1.[Br-] (stereo not given) | – | 102 | –
CCCCCCCC | 126 | -56.8 | log10 Koa: 3.35; log10 biodegradation half-life (days): 0.954; log10 vapour pressure (mmHg): 1.15; ready biodegradability: readily biodegradable
Cc1cn([C@H]2CC[C@@H](CO)O2)c(=O)[nH]c1=O | – | 156 | –
Cc1ccc(O)c(Cl)c1C | 188 | 27 | –
CC(C)(C)c1cc(CO)cc(C(C)(C)C)c1O | – | 140 | ready biodegradability: not readily biodegradable
O=C[C@@H](O)C(O)CO (stereo in doubt) | – | 129 | –
CCC(C(N)=O)n1nnc2ccccc21 (stereo not given) | – | 143 | –
CC(=O)N1CCCC(C)C1 (stereo not given) | 239 | -13.6 | –
CCN1C(=O)C=CC1=O | – | 45.5 | –
C=COC=C | 28.3 | -101 | log10 vapour pressure (mmHg): 2.83
O=C(OCC1CCC2OC2C1)C1CCC2OC2C1 (stereo not given) | – | -37 | –
Clc1ccc(-c2cc(Cl)c(Cl)c(Cl)c2)cc1 | – | – | log10 biotransformation half-life (days): 1.69
CCCCC1CCC(OC(=O)C2CCC(CCCC)CC2)CC1 (stereo not given) | – | – | ready biodegradability: readily biodegradable
Oc1ccc(O)cc1 | 287 | 172 | log10 vapour pressure (mmHg): -4.62; ready biodegradability: readily biodegradable
ClCc1cccc(Cl)c1 | 216 | – | –
CC(C)CCCC(C)N (stereo not given) | 155 | – | –
c1ccc2nccnc2c1 | 230 | 28 | –
CC1=C(CC(=O)O)c2cc(F)ccc2/C1=C\c1ccc(S(C)=O)cc1 (stereo not given) | – | 183 | –

Structure (SMILES) | boiling point [°C] | melting point [°C] | also measured
CC1=NN(c2ccccc2)C(=O)C1 | – | 129 | –
COC(=O)c1ccccc1Br | 252 | – | –
Clc1cccc(C(Cl)(Cl)Cl)n1 | – | 63 | log10 Koc (L/kg): 2.62; log10 vapour pressure (mmHg): -2.32
CC=C(CC)C(=O)NC(N)=O | – | 198 | –
c1ccc2c(c1)nnn2C1CCCCC1 | – | 104 | –
CC1C=CCC1 (stereo not given) | 64.9 | – | –
CCCCCCCCCCCCCCCCCCN(C)C | – | 22.9 | –
Fc1ccc(N2CCNCC2)cc1 | – | 31.5 | –
Cc1n[nH]c(C)c1Cl | 221 | 118 | –
CNC(=O)Oc1cc(C)cc(C)c1 | – | 99 | log10 Koc (L/kg): 1.71; log10 vapour pressure (mmHg): -3.44; ready biodegradability: not readily biodegradable; log10 BCF: 0.4
CC(C)CC(=O)OC(=O)CC(C)C | 215 | – | –
O=C(Cc1ccccc1)OCCc1ccccc1 | – | 26.5 | –
COC(=O)c1ccccc1N | 256 | 24.5 | log10 vapour pressure (mmHg): -1.57
CCCCCCCCCc1ccccc1 | 280 | -24 | log10 vapour pressure (mmHg): -2.24
O=C(O)c1cc(Cl)ccc1O | – | 172 | –
COc1ccccc1C=O | 244 | 37.5 | –
CCCCCCCCCCCCCC | 254 | 5.8 | log10 biodegradation half-life (days): 1.36; log10 vapour pressure (mmHg): -1.94; ready biodegradability: readily biodegradable; log10 biotransformation half-life (days): 1.49
Nc1ccc([N+](=O)[O-])cc1[N+](=O)[O-] | 334 | 180 | ready biodegradability: not readily biodegradable
O=C(O)c1cnc(O)nc1O | – | 283 | –
CCCCCCCCCCCCCCCC[N+](C)(C)CC.[Br-] | – | 182 | –
C=CCCCBr | 126 | – | –

Structure (SMILES) | boiling point [°C] | melting point [°C] | also measured
Cc1ccc(C)c(C(=O)O)c1 | – | 132 | –
COC(C)CCO (stereo not given) | 157 | – | ready biodegradability: readily biodegradable
C[C@]1(O)CC[C@H]2[C@@H]3CCC4=CC(=O)CC[C@]4(C)[C@@]3(F)[C@@H](O)C[C@@]21C | – | 270 | –
FC(F)C(F)(F)C(F)Cl (stereo not given) | 28.1 | 85 | –
ClC1=C(Cl)C2(Cl)C3CCC4C(CCC3C1(Cl)C2(Cl)Cl)C1(Cl)C(Cl)=C(Cl)C4(Cl)C1(Cl)Cl (stereo not given) | – | – | ready biodegradability: not readily biodegradable
CC1=C(/C=C/C(C)=C/C=C/C(C)=C/C=C/C=C(C)/C=C/C=C(C)/C=C/C2=C(C)C(=O)CCC2(C)C)C(C)(C)CCC1 | – | 179 | –
CCC(=O)OCc1ccco1 | 195 | – | –
CCCC(C)(C)Br | 142 | – | –
CCOC(=O)C(CCC(C)C)C(=O)OCC | 241 | – | –
Cc1ccc(N)c(C)c1 | 214 | -14.3 | log10 vapour pressure (mmHg): -0.876; ready biodegradability: not readily biodegradable
CCC(C)(CC)C(=O)O | 207 | – | –
O=C(O)c1ccncc1C(=O)O | – | 256 | –
CCC(C)(O)CC | 122 | -23.6 | log10 vapour pressure (mmHg): 0.745
CCC(=O)Nc1ccc(Cl)c(Cl)c1 | 351 | 92 | log10 Koc (L/kg): 2.17; log10 vapour pressure (mmHg): -6.04; ready biodegradability: readily biodegradable; log10 BCF: 1.84
CNC(=S)S | – | – | ready biodegradability: not readily biodegradable
CCOC(=O)NC | 170 | – | log10 vapour pressure (mmHg): -0.0435
CCCC=C(C=O)CC | 195 | – | log10 vapour pressure (mmHg): 0.107; ready biodegradability: readily biodegradable
C1CCC(CCCCCC2CCCCC2)CC1 | 325 | -13.6 | –
CCCCC(CC)COC(=O)CC(C(=O)OCC(CC)CCCC)S(=O)(=O)[O-].[Na+] (stereo not given) | – | 176 | –
CCc1cccc2ccccc12 | 259 | -13.9 | log10 Henry constant (atm·m³/mol): -3.16; log10 Koc (L/kg): 3.78; log10 vapour pressure (mmHg): -1.6
